# Source: US20250346592A1 (Celgene Corporation, priority 2022, published 2025)
# Target: hPAD4 enzyme (Homo sapiens (Human), UniProt Q9UM07)
# Assay: RFMS2 assay (RapidFire mass spectrometry, TSTGGRQGSHH peptide substrate)
# Type: biochemical
# Settings: 35 nM recombinant human PAD4, 500 μM TSTGGRQGSHH peptide, 30 minutes at room temperature; read-out: RFMS 2 IC50
# Method: Stock compounds were dissolved and stored in 100% DMSO. Compound solutions were prepared via serial dilution at 3-fold intervals in DMSO with top compound concentration at 20 μM in each assay. 0.25 μl of compound solution was transferred from the compound plate to the assay plate by using an acoustic dispenser.
# • Total reaction volume: 25 μl • Assay buffer: […] pH 7.4, 200 mM NaCl, 2 mM CaCl2, 5 mM DTT • 35 nM recombinant human PAD4 • 500 μM TSTGGRQGSHH peptide • 1.2% DMSO • Stop solution: 10% formic acid
# Reaction mixtures were incubated at room temperature for 30 minutes. 10 μl each of the reaction mixtures was then mixed with 40 μl of 10% formic acid in a microtiter plate. The plate was frozen at −80° C. before shipping out on dry ice for RapidFire mass spectroscopy analysis.
# Thawed samples were loaded onto the Rapid Fire 300 system (Agilent) wherein they were first sipped for 250 ms and then loaded onto a Agilent “C” (C18) cartridge using a mobile phase of water containing 0.09% formic acid/0.01% trifluoroacetic acid for 3000 ms desalting flowing at a rate of 1.5 ml/min. Once the samples were loaded and washed, a mobile phase of acetonitrile containing 0.09% formic acid/0.01% trifluoroacetic acid was used to elute the samples directly onto a Sciex API4000 triple quadrupole mass spectrometer for 3000 ms at a flow rate of 1.25 ml/min.
# MRM transitions for substrate and product were monitored in positive ESI mode at m/z=562.3/969.7 and m/z=562.8/541.3 respectively. The dwell time for each transition was set at 100 ms, and the ESI voltage was used at 5500 with a source temperature of 650° C. Extracted ion peaks for each transition were integrated using the Rapid Fire Integrator software.
# Compounds having an activity designated as “A” provided an IC50≤10 nM; compounds having an activity designated as “B” provided an IC50 11-100 nM; compounds having an activity designated as “C” provided an IC50 101-500 nM; compounds having an activity designated as “D” provided an IC50 501-1000 nM; compounds having an activity designated as “E” provided an IC50>1000 nM.
# hPAD4 enzyme, sequence (Q9UM07 whole entry): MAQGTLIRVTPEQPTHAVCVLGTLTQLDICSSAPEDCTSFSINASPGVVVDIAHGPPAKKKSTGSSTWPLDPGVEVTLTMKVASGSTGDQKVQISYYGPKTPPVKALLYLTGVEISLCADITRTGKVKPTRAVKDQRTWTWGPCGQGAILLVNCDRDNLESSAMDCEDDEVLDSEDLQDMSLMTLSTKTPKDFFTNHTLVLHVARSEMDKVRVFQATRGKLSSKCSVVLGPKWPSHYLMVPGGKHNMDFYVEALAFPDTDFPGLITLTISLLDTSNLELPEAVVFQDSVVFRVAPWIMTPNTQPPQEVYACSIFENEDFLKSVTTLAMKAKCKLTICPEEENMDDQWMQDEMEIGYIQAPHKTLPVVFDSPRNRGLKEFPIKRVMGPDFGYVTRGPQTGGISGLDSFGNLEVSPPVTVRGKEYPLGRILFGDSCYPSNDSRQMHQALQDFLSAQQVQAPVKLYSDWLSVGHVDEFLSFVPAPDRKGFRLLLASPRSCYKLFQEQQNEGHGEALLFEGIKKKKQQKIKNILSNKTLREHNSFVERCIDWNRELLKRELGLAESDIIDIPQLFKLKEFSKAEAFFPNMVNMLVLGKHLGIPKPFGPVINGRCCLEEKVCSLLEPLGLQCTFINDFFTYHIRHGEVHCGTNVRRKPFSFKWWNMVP
row,SMILES,IC50 [nM]
1,C[C@@H](N)CN1CCc2cc3c(cc2C1=O)nc(-c1cc2ccc(C#N)cc2n1CC1CC1)n3C [Example 32],101 to 500
2,"C[C@@H](N)CN1CCc2cc3c(cc2C1=O)nc(-c1cc2cccc(Cl)c2n1CC1CC1)n3C [Example 33, (R)-6-(2-aminopropyl)-2-(7-chloro-1-(cyclopropylmethyl)-1H-indol-2-yl)-1-methyl-1,6,7,8-tetrahydro-5H-imidazo[4,5-g]isoquinolin-5-one]",101 to 500
3,"C[C@@H](N)CN1CCc2cc3c(cc2C1=O)nc(-c1cc2cc(Cl)ccc2n1CC1CC1)n3C [Example 34, (R)-6-(2-aminopropyl)-2-(5-chloro-1-(cyclopropylmethyl)-1H-indol-2-yl)-1-methyl-1,6,7,8-tetrahydro-5H-imidazo[4,5-g]isoquinolin-5-one]",501 to 1000
4,"C[C@@H](N)CN1CCc2cc3c(cc2C1=O)nc(-c1cc2cccc(C(F)(F)F)c2n1CC1CC1)n3C [Example 36, (R)-6-(2-aminopropyl)-2-(1-(cyclopropylmethyl)-7-(trifluoromethyl)-1H-indol-2-yl)-1-methyl-1,6,7,8-tetrahydro-5H-imidazo[4,5-g]isoquinolin-5-one]",501 to 1000
5,"CN[C@H](C)CN1CCc2cc3c(cc2C1=O)nc(-c1cc2cccc(OC)c2n1CC1CC1)n3C [Example 37, (R)-2-(1-(cyclopropylmethyl)-7-methoxy-1H-indol-2-yl)-1-methyl-6-(2-(methylamino)propyl)-1,6,7,8-tetrahydro-5H-imidazo[4,5-g]isoquinolin-5-one]",101 to 500
6,"CC(C)c1ccc2cc(-c3nc4cc5c(cc4n3C)CCN(C[C@@H](C)N)C5=O)n(CC3CC3)c2c1 [Example 38, (R)-6-(2-aminopropyl)-2-(1-(cyclopropylmethyl)-6-isopropyl-1H-indol-2-yl)-1-methyl-1,6,7,8-tetrahydro-5H-imidazo[4,5-g]isoquinolin-5-one]",101 to 500
7,"CCc1ccc2cc(-c3nc4cc5c(cc4n3C)CCN(C[C@@H](C)N)C5=O)n(CC3CC3)c2c1 [Example 39, (R)-6-(2-aminopropyl)-2-(1-(cyclopropylmethyl)-6-ethyl-1H-indol-2-yl)-1-methyl-1,6,7,8-tetrahydro-5H-imidazo[4,5-g]isoquinolin-5-one]",101 to 500
8,"C[C@@H](N)CN1CCc2cc3c(cc2C1=O)nc(-c1cc2ccc(C4COC4)cc2n1CC1CC1)n3C [Example 42, (R)-6-(2-aminopropyl)-2-(1-(cyclopropylmethyl)-6-(oxetan-3-yl)-1H-indol-2-yl)-1-methyl-1,6,7,8-tetrahydro-5H-imidazo[4,5-g]isoquinolin-5-one]",501 to 1000
9,"C[C@@H](N)CN1CCc2cc3c(cc2C1=O)nc(-c1cc2ccc(Cl)nc2n1CC1CC1)n3C [Example 43, (R)-6-(2-aminopropyl)-2-(6-chloro-1-(cyclopropylmethyl)-1H-pyrrolo[2,3-b]pyridin-2-yl)-1-methyl-1,6,7,8-tetrahydro-5H-imidazo[4,5-g]isoquinolin-5-one]",101 to 500
10,"COc1ccc2cc(-c3nc4cc5c(cc4n3C)CCN(C[C@@H](C)N)C5=O)n(CC3CC3)c2n1 [Example 44, (R)-6-(2-aminopropyl)-2-(1-(cyclopropylmethyl)-6-methoxy-1H-pyrrolo[2,3-b]pyridin-2-yl)-1-methyl-1,6,7,8-tetrahydro-5H-imidazo[4,5-g]isoquinolin-5-one]",101 to 500
11,"C[C@@H](N)CN1CCc2cc3c(cc2C1=O)nc(-c1cc2ccc(=O)[nH]c2n1CC1CC1)n3C [Example 45, (R)-6-(2-aminopropyl)-2-(1-(cyclopropylmethyl)-6-oxo-6,7-dihydro-1H-pyrrolo[2,3-b]pyridin-2-yl)-1-methyl-1,6,7,8-tetrahydro-5H-imidazo[4,5-g]isoquinolin-5-one]",> 1000
12,"C[C@@H](N)CN1CCc2cc3c(cc2C1=O)nc(-c1c(F)c2ccccc2n1CC1CC1)n3C [Example 46, (R)-6-(2-aminopropyl)-2-(1-(cyclopropylmethyl)-3-fluoro-1H-indol-2-yl)-1-methyl-1,6,7,8-tetrahydro-5H-imidazo[4,5-g]isoquinolin-5-one]",501 to 1000
13,"Cc1ccc2cc(-c3nc4cc5c(cc4n3C)CCN(C[C@H](N)CF)C5=O)n(CC3CC3)c2c1 [Example 47, (S)-6-(2-amino-3-fluoropropyl)-2-(1-(cyclopropylmethyl)-6-methyl-1H-indol-2-yl)-1-methyl-1,6,7,8-tetrahydro-5H-imidazo[4,5-g]isoquinolin-5-one]",101 to 500
14,"Cn1c(-c2cc3cccnc3n2CC2CC2)nc2cc3c(cc21)CCN(C[C@H](N)CF)C3=O [Example 49, (S)-6-(2-amino-3-fluoropropyl)-2-(1-(cyclopropylmethyl)-1H-pyrrolo[2,3-b]pyridin-2-yl)-1-methyl-1,6,7,8-tetrahydro-5H-imidazo[4,5-g]isoquinolin-5-one]",> 1000
15,"COc1ccc2cc(-c3nc4cc5c(cc4n3C)CCN(C[C@H](N)CF)C5=O)n(CC3CC3)c2c1 [Example 50, (S)-6-(2-amino-3-fluoropropyl)-2-(1-(cyclopropylmethyl)-6-methoxy-1H-indol-2-yl)-1-methyl-1,6,7,8-tetrahydro-5H-imidazo[4,5-g]isoquinolin-5-one]",101 to 500
16,"CC(C)c1ccc2cc(-c3nc4cc5c(cc4n3C)CCN(C[C@H](N)CF)C5=O)n(CC3CC3)c2c1 [Example 51, (S)-6-(2-amino-3-fluoropropyl)-2-(1-(cyclopropylmethyl)-6-isopropyl-1H-indol-2-yl)-1-methyl-1,6,7,8-tetrahydro-5H-imidazo[4,5-g]isoquinolin-5-one]",101 to 500
17,"Cn1c(-c2cc3ccncc3n2CC2CC2)nc2cc3c(cc21)CCN(C[C@H](N)CF)C3=O [Example 52, (S)-6-(2-amino-3-fluoropropyl)-2-(1-(cyclopropylmethyl)-1H-pyrrolo[2,3-c]pyridin-2-yl)-1-methyl-1,6,7,8-tetrahydro-5H-imidazo[4,5-g]isoquinolin-5-one]",> 1000
18,"COc1nccc2cc(-c3nc4cc5c(cc4n3C)CCN(C[C@H](N)CF)C5=O)n(CC3CC3)c12 [Example 54, (S)-6-(2-amino-3-fluoropropyl)-2-(1-(cyclopropylmethyl)-7-methoxy-1H-pyrrolo[2,3-c]pyridin-2-yl)-1-methyl-1,6,7,8-tetrahydro-5H-imidazo[4,5-g]isoquinolin-5-one]",501 to 1000
19,"Cn1c(-c2cc3ccc(C(C)(C)C)cc3n2CC2CC2)nc2cc3c(cc21)CCN(C[C@H](N)CF)C3=O [Example 55, (S)-6-(2-amino-3-fluoropropyl)-2-(6-(tert-butyl)-1-(cyclopropylmethyl)-1H-indol-2-yl)-1-methyl-1,6,7,8-tetrahydro-5H-imidazo[4,5-g]isoquinolin-5-one]",501 to 1000
20,"Cn1c(-c2cc3ccc(Cl)nc3n2CC2CC2)nc2cc3c(cc21)CCN(C[C@H](N)CF)C3=O [Example 56, (S)-6-(2-amino-3-fluoropropyl)-2-(6-chloro-1-(cyclopropylmethyl)-1H-pyrrolo[2,3-b]pyridin-2-yl)-1-methyl-1,6,7,8-tetrahydro-5H-imidazo[4,5-g]isoquinolin-5-one]",101 to 500
21,"Cn1c(-c2cc3ccc(C4CC4)nc3n2CC2CC2)nc2cc3c(cc21)CCN(C[C@H](N)CF)C3=O [Example 59, (S)-6-(2-amino-3-fluoropropyl)-2-(6-cyclopropyl-1-(cyclopropylmethyl)-1H-pyrrolo[2,3-b]pyridin-2-yl)-1-methyl-1,6,7,8-tetrahydro-5H-imidazo[4,5-g]isoquinolin-5-one]",101 to 500
